Patent US20230040770A1, “HETEROCYCLIC COMPOUND AND USE THEREOF” (TAKEDA PHARMACEUTICAL COMPANY LIMITED, priority 2019, published 2023)

Tests used:
[1] = Evaluation of microsome stability in human; format: in vitro ADME; conditions: pH 7.4; in vitro intrinsic metabolic clearance; human liver microsomes 0.2 mg/mL, 1 μmol/L test compound, NADPH-generating system
Protocol: Human liver microsomes were purchased from Xenotech, LLC (Lenexa, Kans.). An incubation mixture consisted of microsomes in 50 mmol/L KH2PO4—K2HPO4 phosphate buffer (pH 7.4) and 1 μmol/L test compound. The concentration of microsomal protein was 0.2 mg/mL. An NADPH-generating system (5 mmol/L MgCl2, 5 mmol/L glucose-6-phosphate, 0.5 mmol/L beta-NADP+ and 1.5 unit/mL glucose-6-phosphate dehydrogenase) was added to the incubation mixture with a half volume of the reaction mixture to initiate the enzyme reaction. The reaction was terminated 15 and 30 minutes after the initiation of the reaction by mixing the reaction mixture with acetonitrile, followed by centrifugation at 2500 rpm for 10 min. The supernatant was subjected to LC/MS/MS analysis. The metabolic rate constant was calculated as the slope of the remaining rate-time plot. The in vitro intrinsic metabolic clearance was calculated by dividing initial metabolic rate constant by microsomal protein in the incubation mixture.

[2] = test system: cynomolgus monkeys; test: Evaluation of wake-promoting effects in cynomolgus monkeys (EEG/EMG); format: in vivo, cynomolgus monkey; conditions: Macaca fascicularis, time spent in wakefulness for 4 h after administration, read-out: Wakefulness time (% of vehicle treatment) (Mean); for response vs control in vivo at 3 mg/kg: 3 mg/kg p.o. at ZT12; for response vs control in vivo at 0.1 mg/kg / response vs control in vivo at 0.3 mg/kg: sc; for response vs control in vivo at 0.1 mg/kg: 0.1 mg/kg s.c. at ZT12; for response vs control in vivo at 0.3 mg/kg: 0.3 mg/kg s.c. at ZT12
Protocol: The wake-promoting effects were evaluated by measuring the electroencephalogram (EEG) and electromyogram (EMG) in cynomolgus monkeys. Under isoflurane anesthesia (1-5%, Pfizer Japan Inc., Tokyo, Japan), male cynomolgus monkeys (3-5 years old, Hamri Co., Ltd., Ibaraki, Japan) were surgically implanted with radio-telemetry transmitters (TL10M3-D70-EEE, Data Sciences International Inc., MN, USA). EEG electrodes were screwed into the skull at the parietal area. EMG electrodes were implanted on the cervical muscles. After the surgery, each monkey was given penicillin (100,000 units/head, i.m., Meiji Seika Pharma Co., Ltd., Tokyo, Japan), buprenorphine (0.02 mg/kg, i.m., Otsuka Pharmaceutical Co., Ltd., Tokyo, Japan) and prednisolone (1 mg/kg, s.c., Kyoritsu Seiyaku Co., Ltd., Tokyo, Japan) daily for one week. After at least a 1-month recovery period in home cages, the monkeys were habituated to the recording chamber placed in a soundproof room. EEG and EMG signals were recorded using the telemetry system (Dataquest ART software, Data Sciences International Inc., MN, USA) and the signals were analyzed using SleepSign software (Kissei Comtec Co., Ltd., Nagano, Japan). After confirming long sleep in dark phase in the experimental room, we used animals to examine the wake-promoting effect of compounds.
Oral test compounds (3 or 10 mg/kg) suspended in 0.5% methylcellulose aqueous solution, or vehicle (i.e., 0.5% methylcellulose aqueous solution) was administered orally (p.o.) to monkeys at zeitgeber time 12 (ZT12) in a volume of 5 mL/kg body weight in cross-over design or pre-post design (n=1-4). EEG and EMG recordings were performed for 4 h after the compound administration. The time spent in wakefulness for 4 h after administration (% of vehicle treatment) was calculated by using SleepSign.
Parenteral test compounds (0.1 or 0.3 mg/kg) dissolved in a mixed solution comprising 5% DMSO, 5% Cremophor EL, 20% PEG400 and 70% soluplus (1% (w/v)), or vehicle (i.e., a mixed solution comprising 5% DMSO, 5% Cremophor EL, 20% PEG400 and 70% soluplus (1% (w/v))) was administered subcutaneously (s.c.) to monkeys at ZT12 in a volume of 0.5 mL/kg body weight in a pre-post design (n=1-2). EEG and EMG recordings were performed for 4 h after the compound administration. The time spent in wakefulness for 4 h after administration (% of vehicle treatment) was calculated by using SleepSign.

[3] = biological target: T1, human orexin type 2 receptor (Homo sapiens, UniProt O43614); test: Measurement of orexin type 2 receptor agonist activity (calcium indicator fluorescence, CHO cells forcibly expressing human OX2 receptor); format: cell-based; conditions: compound at 3 μM; 0% = DMSO, 100% = orexin A (human) 10 nM
T1 construct: expressed in transfected cells
T1 sequence (O43614 1-444): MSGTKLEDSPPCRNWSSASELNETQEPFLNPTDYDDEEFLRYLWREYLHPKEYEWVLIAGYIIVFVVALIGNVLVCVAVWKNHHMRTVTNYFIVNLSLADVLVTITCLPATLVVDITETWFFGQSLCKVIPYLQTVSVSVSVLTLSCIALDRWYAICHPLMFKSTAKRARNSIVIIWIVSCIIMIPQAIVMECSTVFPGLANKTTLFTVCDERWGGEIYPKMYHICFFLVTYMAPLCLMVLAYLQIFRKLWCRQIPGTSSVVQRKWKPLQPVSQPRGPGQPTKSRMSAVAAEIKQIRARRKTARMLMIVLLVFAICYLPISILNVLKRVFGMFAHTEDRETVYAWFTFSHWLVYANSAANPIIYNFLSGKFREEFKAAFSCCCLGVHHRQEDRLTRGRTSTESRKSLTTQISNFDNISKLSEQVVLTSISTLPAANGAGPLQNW
Procedure, shortened: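 CHO-dhfr cells stably expressing human OX2R, loaded with Fluo-4 AM (30 min 37 °C, then 30 min RT), then given test compound. Calcium fluorescence read by FDSS over ~2 min. Activity (%) scaled from DMSO (0%) to 10 nM final orexin A (100%).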

For CCS(=O)(=O)N[C@@H]1[C@H](Cc2cccc(-c3cccc(F)c3)c2F)N(C(=O)[C@H]2CCO2)CC1(F)F [Example 1, N-[(2S,3R)-2-[(2,3′-difluoro[1,1′-biphenyl]-3-yl)methyl]-4,4-difluoro-1-((2R)-oxetane-2-carbonyl)pyrrolidin-3-yl]ethanesulfonamide], which microsomal CLint at 1 μmol/L [1] is on record?
Its microsomal CLint at 1 μmol/L is 75 µL/min/mg.

And the response vs control in vivo at 3 mg/kg ([2]; po)?
Its response vs control in vivo at 3 mg/kg is 234%.

And the “OX2R agonist activity (3 μM, %)” value [3]?
The value was 100%.

With CC(C)(O)C(=O)N1CC(F)(F)[C@H](NS(C)(=O)=O)[C@@H]1Cc1cccc(-c2cc(F)cc(F)c2)c1F [Example 2, N-{(2S,3R)-4,4-difluoro-1-(2-hydroxy-2-methylpropanoyl)-2-[(2,3′,5′-trifluoro[1,1′-biphenyl]-3-yl)methyl]pyrrolidin-3-yl}methanesulfonamide] as the molecule, how does the microsomal CLint at 1 μmol/L [1] read?
The microsomal CLint at 1 μmol/L was 40 µL/min/mg.

What about the response vs control in vivo at 3 mg/kg ([2]; po) of the same molecule?
Its response vs control in vivo at 3 mg/kg is 600%.

And the “OX2R agonist activity (3 μM, %)” value [3]?
Its value is 106%.

Which response vs control in vivo at 3 mg/kg ([2]; po) does the source give for CCS(=O)(=O)N[C@@H]1[C@H](Cc2cccc(-c3cc(F)cc(F)c3)c2F)N(C(=O)C(C)(C)O)CC1(F)F [Example 3, N-{(2S,3R)-4,4-difluoro-1-(2-hydroxy-2-methylpropanoyl)-2-[(2,3′,5′-trifluoro[1,1′-biphenyl]-3-yl)methyl]pyrrolidin-3-yl}ethanesulfonamide] here?
The response vs control in vivo at 3 mg/kg was 613%.

And the “OX2R agonist activity (3 μM, %)” value [3]?
Its value is 106%.

For CCS(=O)(=O)N[C@@H]1[C@H](Cc2cccc(-c3ccccc3)c2F)N(C(=O)C(C)(C)O)CC1(F)F [Example 5, N-[(2S,3R)-4,4-difluoro-2-[(2-fluoro[1,1′-biphenyl]-3-yl)methyl]-1-(2-hydroxy-2-methylpropanoyl)pyrrolidin-3-yl]ethanesulfonamide], which microsomal CLint at 1 μmol/L [1] is on record?
The microsomal CLint at 1 μmol/L was 12 µL/min/mg.

And the response vs control in vivo at 10 mg/kg ([2]; po, 10 mg/kg p.o. at ZT12)?
Its response vs control in vivo at 10 mg/kg is 412%.

And the “OX2R agonist activity (3 μM, %)” value [3]?
The value was 117%.

Which microsomal CLint at 1 μmol/L [1] does the source give for CCS(=O)(=O)N[C@@H]1[C@H](Cc2cccc(-c3cc(F)cc(F)c3)c2F)N(C(=O)[C@H]2CCO2)CC1(F)F [Example 56, N-{(2S,3R)-4,4-difluoro-1-((2R)-oxetane-2-carbonyl)-2-[(2,3′,5′-trifluoro[1,1′-biphenyl]-3-yl)methyl]pyrrolidin-3-yl}ethanesulfonamide] here?
Its microsomal CLint at 1 μmol/L is 135 µL/min/mg.

What about the response vs control in vivo at 3 mg/kg ([2]; po) of the same molecule?
Its response vs control in vivo at 3 mg/kg is 417%.

What about the “OX2R agonist activity (3 μM, %)” value [3] of the same molecule?
The value was 95%.

Which microsomal CLint at 1 μmol/L [1] does the source give for CCS(=O)(=O)N[C@@H]1[C@H](Cc2cccc(-c3cccc(F)c3F)c2F)N(C(=O)C(C)(C)O)CC1(F)F [Example 66, N-{(2S,3R)-4,4-difluoro-1-(2-hydroxy-2-methylpropanoyl)-2-[(2,2′,3′-trifluoro[1,1′-biphenyl]-3-yl)methyl]pyrrolidin-3-yl}ethanesulfonamide] here?
The microsomal CLint at 1 μmol/L was 61 µL/min/mg.

And the response vs control in vivo at 3 mg/kg ([2]; po)?
The response vs control in vivo at 3 mg/kg was 463%.

What about the “OX2R agonist activity (3 μM, %)” value [3] of the same molecule?
The value was 104%.

With Cc1cccc(-c2cccc(C[C@H]3[C@@H](NS(=O)(=O)N(C)C)C(F)(F)CN3C(=O)N3CCC3)c2F)c1 [Example 443, N′-{(2S,3R)-1-(azetidine-1-carbonyl)-4,4-difluoro-2-[(2-fluoro-3′-methyl[1,1′-biphenyl]-3-yl)methyl]pyrrolidin-3-yl}-N,N-dimethylsulfuric diamide] as the molecule, how does the response vs control in vivo at 0.1 mg/kg [2] read?
Its response vs control in vivo at 0.1 mg/kg is 532%.

What about the “OX2R agonist activity (3 μM, %)” value [3] of the same molecule?
The value was 90%.

What does the source list for CCS(=O)(=O)N[C@H]1[C@@H](F)CN(C(=O)N2CCC2)[C@H]1Cc1cccc(-c2cc(F)cc(F)c2)c1F [Example 450, N-{(2S,3R,4S)-1-(azetidine-1-carbonyl)-4-fluoro-2-[(2,3′,5′-trifluoro[1,1′-biphenyl]-3-yl)methyl]pyrrolidin-3-yl}ethanesulfonamide]?
response vs control in vivo at 0.3 mg/kg [2]: 814%; OX2R agonist activity (3 μM, %) [3]: 86%

With CCS(=O)(=O)N[C@H]1[C@@H](F)CN(C(=O)N2CCC2)[C@H]1Cc1cccc(-c2cccc(C)c2)c1F [Example 451, N-{(2S,3R,4S)-1-(azetidine-1-carbonyl)-4-fluoro-2-[(2-fluoro-3′-methyl[1,1′-biphenyl]-3-yl)methyl]pyrrolidin-3-yl}ethanesulfonamide] as the molecule, how does the response vs control in vivo at 0.1 mg/kg [2] read?
The response vs control in vivo at 0.1 mg/kg was 225%.

What about the “OX2R agonist activity (3 μM, %)” value [3] of the same molecule?
Its value is 82%.

What does the source list for Cc1cccc(-c2cccc(C[C@H]3[C@@H](NS(=O)(=O)N(C)C)[C@@H](F)CN3C(=O)N(C)C)c2F)c1 [Example 459, (2S,3R,4S)-3-[(dimethylsulfamoyl)amino]-4-fluoro-2-[(2-fluoro-3′-methyl[1,1′-biphenyl]-3-yl)methyl]-N,N-dimethylpyrrolidine-1-carboxamide]?
response vs control in vivo at 0.3 mg/kg [2]: 431%; OX2R agonist activity (3 μM, %) [3]: 78%

For Cc1cccc(-c2cccc(C[C@H]3[C@@H](NS(=O)(=O)N(C)C)[C@@H](F)CN3C(=O)C3(O)CCC3)c2F)c1 [Example 462, N′-[(2S,3R,4S)-4-fluoro-2-[(2-fluoro-3′-methyl[1,1′-biphenyl]-3-yl)methyl]-1-(1-hydroxycyclobutane-1-carbonyl)pyrrolidin-3-yl]-N,N-dimethylsulfuric diamide], which response vs control in vivo at 0.3 mg/kg [2] is on record?
The response vs control in vivo at 0.3 mg/kg was 365%.

And the “OX2R agonist activity (3 μM, %)” value [3]?
Its value is 78%.

Which response vs control in vivo at 0.1 mg/kg [2] does the source give for Cc1cccc(-c2cccc(C[C@H]3[C@@H](NS(=O)(=O)N(C)C)[C@@H](F)CN3C(=O)N3CCC3)c2F)c1 [Example 463, N′-{(2S,3R,4S)-1-(azetidine-1-carbonyl)-4-fluoro-2-[(2-fluoro-3′-methyl[1,1′-biphenyl]-3-yl)methyl]pyrrolidin-3-yl}-N,N-dimethylsulfuric diamide] here?
The response vs control in vivo at 0.1 mg/kg was 483%.

And the “OX2R agonist activity (3 μM, %)” value [3]?
Its value is 79%.

With CN(C)S(=O)(=O)N[C@@H]1[C@H](Cc2cccc(-c3cc(F)cc(F)c3)c2F)N(C(=O)[C@H]2CCO2)CC1(F)F [Example 542, N′-{(2S,3R)-4,4-difluoro-1-[(2R)-oxetane-2-carbonyl]-2-[(2,3′,5′-trifluoro[1,1′-biphenyl]-3-yl)methyl]pyrrolidin-3-yl}-N,N-dimethylsulfuric diamide] as the molecule, how does the response vs control in vivo at 0.3 mg/kg [2] read?
The response vs control in vivo at 0.3 mg/kg was 505%.

And the “OX2R agonist activity (3 μM, %)” value [3]?
Its value is 100%.

Which “OX2R agonist activity (3 μM, %)” value [3] does the source give for CCS(=O)(=O)N[C@@H]1[C@H](Cc2cccc(-c3cccc(OC(F)F)c3)c2F)N(C(=O)C2(O)CCC2)CC1(F)F [Example 552, N-[(2S,3R)-2-{[3′-(difluoromethoxy)-2-fluoro[1,1′-biphenyl]-3-yl]methyl}-4,4-difluoro-1-(1-hydroxycyclobutane-1-carbonyl)pyrrolidin-3-yl]ethanesulfonamide] here?
Its value is 94%.
